From patent US11473153B2, “Device and methods of using device for separation of bacteria from complex samples” (priority 2014, dated 2022)
Where two headings read alike, the source gives them in different places.

Experiments:
bacteria = settings: cited from earlier work
[1] = test system: unspecific bacteria grown from dirt
E. coli O157H7 = settings: Eth20%/GroundMeat + O157H7/Media, 30 min, 1.5 ml device
S. typhimurium [2] = settings: Eth20%/Media + Salmonella/Media, 1.5 ml device
S. typhimurium [3] = test: Four-channel membrane microfluidic chip, separation by chemoattractant (FIG. 9B); assay type: cell-based
Description: FIG. 9A depicts a diagram of a microfluidic chip with four channels that overlap in the vertical direction, with each channel being separated by a semipermeable membrane. Each channel has an inlet/outlet on either end of the chip, each channel can be filled using regular pipettes. The four channels overlap in the vertical direction to maximize contact are amongst channels and optimizes the time required for the chemical gradients to form. The membranes between the channels prevent fluid flow while allowing the chemical gradients to form and bacteria to migrate between the channels. […] The contents of each channel was extracted after approximately 30 minutes and the bacterial density measured using a cell counter (left hand bar in each column). […] Control experiments were also performed to evaluate random dispersion of bacteria to channels 1 and 3 filled with buffer; very few of the bacteria moved away from channel 2 without the present of the chemoattractant (middle bars in each column).

S. typhimurium [4] = test: Microliter-scale sample chamber device, separation run (FIG. 12); assay type: cell-based; settings: 30 minutes
Method: Experimental and control separation runs were performed in the device and results recorded as disclosed below. FIG. 12 depicts an experimental run on the device in which 2 mM of alpha-methylaspartate (chemo-attractant) was diluted in chemotaxis buffer was introduced in the extraction chamber. […] Deionized water was introduced in the repellent chamber. After 30 minutes, the contents of each chamber was recovered and the amount of bacteria in each chamber counted.

| Structure (SMILES) | Chemoattractant (bacteria for which the substance is one) (bacteria) | Chemorepellent (bacteria for which the substance is one) (bacteria) | also measured |
| --- | --- | --- | --- |
| OC[C@H]1O[C@H](O[C@H]2[C@H](O)[C@@H](O)C(O)O[C@@H]2CO)[C@H](O)[C@@H](O)[C@@H]1O (mixture of isomers) [Maltose] | E. coli | (no effect on S. typhimurium) |  |
| CC(=O)O [Acetate] | C. vinosum | E. coli, S. typhimurium |  |
| O=C(O)c1ccccc1 [Benzoate] | P. putida | E. coli, S. typhimurium |  |
| O=C(O)CC(O)(CC(=O)O)C(=O)O [Citrate] | S. typhimurium | (no effect on E. coli) |  |
| [Co+2] [Co^2+] | (no effect on S. typhimurium) | E. coli |  |
| CCO [Eth20%, Ethanol] |  |  | movement of bacteria over time ([1]; 50% ethanol chemorepellent gradient, FIG. 4B/4C): clearly seen moving away from the ethanol; state of bacteria next to the maximum concentration of ethanol ([1]; 50% ethanol chemorepellent in horizontal channel, FIG. 4B): non-motile and putatively dead; E: extraction efficiency (E. coli O157H7; Meat diluted 1:1): 77.60%; E: extraction efficiency (E. coli O157H7; Meat diluted 1:2): 109.80%; E: extraction efficiency (E. coli O157H7; Meat diluted 1:3): 57.00%; E: extraction efficiency (S. typhimurium [2]; 25 min): 76.4% + −8%; E: extraction efficiency (S. typhimurium [2]; 30 min): 87.9% + −7% |
| [H+] [H^+] | R. sphaeroids | E. coli, C. vinosum |  |
| CC(C)C[C@H](N)C(=O)O [Leucine] | B. subtilis | E. coli, S. typhimurium |  |
| [Ni+2] [Ni^2] | (no effect on S. typhimurium) | E. coli |  |
| O [OH^−] | R. sphaeroids | E. coli, C. vinosum |  |
| Oc1ccccc1 [Phenol] | E. coli | S. typhimurium |  |
| N[C@@H](Cc1c[nH]c2ccccc12)C(=O)O [Tryptophan] | B. subtilis, C. vinosum | E. coli, S. typhimurium |  |
| CC(C)[C@H](N)C(=O)O [Valine] | B. subtilis | E. coli, S. typhimurium |  |
| CC(N)(CC(=O)O)C(=O)O (stereo not drawn) [α-methyl aspartate] |  |  | bacterial density per channel (cell counter) (S. typhimurium [3]; 2 mM in channel 1, S. typhimurium in channel 2, buffer in channel 3, approximately 30 minutes): most bacteria crossed over to the channel containing maximal concentration of chemoattractant; bacterial density per channel, gravity control (S. typhimurium [3]; buffer and chemoattractant introduced through the opposite channels): the results were the same; concentration of bacteria in the extraction chamber normalized to the initial concentration (S. typhimurium [4]; 2 mM in chemotaxis buffer in extraction chamber, sample chamber about 110 μL): about 2 times higher than the initial concentration; bacteria in the repellent chamber (S. typhimurium [4]; 2 mM in extraction chamber, deionized water in repellent chamber): no bacteria were found |
